Data: the NIST ThermoML archive (doi:10.1016/j.jct.2019.02.025)

Legend:
[1] = for mass density / kinematic viscosity: 101.33 kPa, Liquid; for mass density: Vibrating tube method; for surface tension liquid-gas / kinematic viscosity: Surface laser light scattering (SLLS)
[2] = refractive index (Na D-line) (dimensionless); details: 101.33 kPa, Liquid, Standard Abbe refractometry

CCCCCCCCCCCCCC(=O)OCC [ethyl tetradecanoate]
Details | kinematic viscosity [m2/s] | mass density [kg/m3] | refractive index | surface tension liquid-gas [mN/m]
[1], 293.15 K | – | 860.8 | – | –
[1], 303.15 K | – | 853.07 | – | –
[1], 313.15 K | – | 845.46 | – | –
[1], 323.14 K | 2.63e-06 | – | – | 24.08
[1], 323.15 K | – | 837.86 | – | –
[1], 333.15 K | – | 830.3 | – | –
[1], 343.15 K | – | 822.77 | – | –
[1], 348.16 K | 1.9e-06 | – | – | 22.25
[1], 353.15 K | – | 815.26 | – | –
[1], 363.15 K | – | 807.75 | – | –
[1], 373.15 K | – | 799.27 | – | –
[1], 373.22 K | 1.43e-06 | – | – | 20.56
[1], 383.15 K | – | 792.77 | – | –
[1], 393.15 K | – | 785.27 | – | –
[1], 398.24 K | 1.12e-06 | – | – | 19.48
[1], 403.15 K | – | 777.75 | – | –
[1], 413.15 K | – | 770.21 | – | –
[1], 423.15 K | – | 762.65 | – | –
[1], 423.26 K | 8.97e-07 | – | – | 18.15
[1], 433.15 K | – | 755.04 | – | –
[1], 443.15 K | – | 747.42 | – | –
[1], 448.28 K | 7.25e-07 | – | – | 16.53
[1], 453.15 K | – | 739.78 | – | –
[2], 288.15 K | – | – | 1.43841 | –
[2], 293.15 K | – | – | 1.43636 | –
[2], 298.15 K | – | – | 1.43432 | –
[2], 303.15 K | – | – | 1.4323 | –
[2], 308.15 K | – | – | 1.43026 | –
[2], 313.15 K | – | – | 1.4282 | –
[2], 318.15 K | – | – | 1.42613 | –
[2], 323.15 K | – | – | 1.42407 | –
[2], 328.15 K | – | – | 1.42205 | –
[2], 333.15 K | – | – | 1.42004 | –
[2], 338.15 K | – | – | 1.41803 | –
[2], 343.15 K | – | – | 1.41603 | –
[2], 348.15 K | – | – | 1.41406 | –
[2], 353.15 K | – | – | 1.41208 | –
[2], 358.15 K | – | – | 1.4101 | –

CCCCCCCCCC(=O)OC [methyl decanoate]
Details | kinematic viscosity [m2/s] | mass density [kg/m3] | refractive index | surface tension liquid-gas [mN/m]
[1], 293.15 K | – | 872.34 | – | –
[1], 298.14 K | 2.09e-06 | – | – | 24.73
[1], 303.15 K | – | 864.01 | – | –
[1], 313.15 K | – | 855.73 | – | –
[1], 323.15 K | – | 847.47 | – | –
[1], 323.16 K | 1.48e-06 | – | – | 23.28
[1], 333.15 K | – | 839.2 | – | –
[1], 343.15 K | – | 830.94 | – | –
[1], 348.16 K | 1.13e-06 | – | – | 21.96
[1], 353.15 K | – | 822.61 | – | –
[1], 363.15 K | – | 814.38 | – | –
[1], 373.15 K | – | 806.06 | – | –
[1], 373.17 K | 8.74e-07 | – | – | 20.49
[1], 383.15 K | – | 797.7 | – | –
[1], 393.15 K | – | 789.29 | – | –
[1], 398.08 K | 6.87e-07 | – | – | 18.81
[1], 403.15 K | – | 780.82 | – | –
[1], 413.15 K | – | 771.74 | – | –
[1], 422.99 K | 5.61e-07 | – | – | 16.83
[1], 423.15 K | – | 763.71 | – | –
[1], 433.15 K | – | 755 | – | –
[1], 443.15 K | – | 746.3 | – | –
[1], 447.95 K | 4.52e-07 | – | – | 14.87
[1], 453.15 K | – | 737.39 | – | –
[2], 278.15 K | – | – | 1.43209 | –
[2], 283.15 K | – | – | 1.42995 | –
[2], 288.15 K | – | – | 1.42783 | –
[2], 293.15 K | – | – | 1.42571 | –
[2], 298.15 K | – | – | 1.42359 | –
[2], 303.15 K | – | – | 1.42148 | –
[2], 308.15 K | – | – | 1.41938 | –
[2], 313.15 K | – | – | 1.41726 | –
[2], 318.15 K | – | – | 1.4151 | –
[2], 323.15 K | – | – | 1.41295 | –
[2], 328.15 K | – | – | 1.41083 | –
[2], 333.15 K | – | – | 1.40871 | –
[2], 338.15 K | – | – | 1.40659 | –
[2], 343.15 K | – | – | 1.40448 | –
[2], 348.15 K | – | – | 1.40237 | –
[2], 353.15 K | – | – | 1.40028 | –
[2], 358.15 K | – | – | 1.39819 | –
